Laboratory results taken from patent US9910034B2, “Methods and compositions for phototransfer” (AmberGen, Inc., priority 2007, dated 2018).

Molecular target: T1, protein kinase Cα (PKCα) (Homo sapiens, UniProt P17252)
T1 construct: isolate and photo-release endogenous PKCα from the undiluted detergent fractionated HeLa cell extracts; endogenous in cells; host or cells: HeLa cells (ATCC)
Experiment: PMA mediated PKCα sub-cellular translocation measured by kinase activity after isolation with photocleavable antibodies
Assay type: cell-based
Conditions: cultured HeLa cells stimulated with 200 nM PMA for 5 min; detergent fractionated; based on kinase activity of photocleavable antibody isolated protein; n=4
Procedure: FIG. 20. Phorbol ester (PMA) mediated protein kinase Cα (PKCα) sub-cellular translocation as measured by functional activity following isolation with photocleavable antibodies. Cultured HeLa cells were stimulated with 200 nM PMA for 5 min and detergent fractionated into the cytosol and membrane compartments prior to isolation and purification with the photocleavable antibodies.
Cultured HeLa cells (ATCC; Manassas, Va.) were stimulated for 5 min with 200 nM Phorbol-12-Myristate-13-Acetate (PMA; EMD Biosciences, Inc., San Diego, Calif.) and subsequently detergent fractionated into sub-cellular compartments according to reported procedures [Ramsby et al. (1994) Electrophoresis 15, 265-277; Ramsby & Makowski. (1999) Methods Mol Biol 112, 53-66; Chiang et al. (2000) J Biochem Biophys Methods 46, 53-68]. PMA is a potent activator of PKCα and is well known to cause translocation of the kinase from the cytosolic to the membrane sub-cellular compartments [Ross & Joyner. (1997) Endothelium 5, 321-332; Bazan & Rapoport. (1996) J Pharmacol Toxicol Methods 36, 87-95; Yazlovitskaya Melnykovych. (1995) Cancer Lett 88, 179-183]. […]

For `CCCCCCCCCCCCCC(=O)O[C@@H]1[C@@H](C)[C@@]2(O)[C@@H](C=C(CO)C[C@]3(O)C(=O)C(C)=C[C@@H]23)[C@@H]2C(C)(C)[C@]12OC(C)=O` [PMA, Phorbol-12-Myristate-13-Acetate], the “relative sub-cellular distribution of PKCα, cytosol” value was 16±4% and the “relative sub-cellular distribution of PKCα, membrane” value was 84±3%.
